Laboratory results taken from patent US7618663B2, “Anti-arthritic herbal composition and method thereof” (priority 2004, dated 2009).
Marks after values point to notes of the source that are not given here.

Tests used:
[1] = test system: formaldehyde-induced arthritis; assay: formaldehyde-induced acute arthritis, paw edema; format: in vivo, rat; conditions: dose 30 mg/kg; given 24 hours before formalin and continued for 13 days; mean ± S.E.M., six rats
Experimental: Formaldehyde-induced arthritis was produced in rats by injecting 0.1 ml of 2% formaldehyde in the hind paw under the planter aponeurosis. Paw volume was measured daily for 13 days. The test composition was given 24 hours before formalin injection and continued for 13 days.

stomach = conditions: known side effect of the drug; cited from earlier work
[2] = test system: formalin arthritis and granuloma pouch; conditions: cited from earlier work

Row | Structure (SMILES) | % Edema (Swelling) [1] | ulcer in the stomach (stomach) | mortality rate ([2]; albino rats) | gastric side effects-ulcer and bleeding ([2]; rats)
1 | CC(C)Cc1ccc(C(C)C(=O)O)cc1 (stereo not shown) [Ibuprofen] | 27.80 ± 4.2^b % | causes ulcer in the stomach | – | –
2 | C[C@H]1C[C@H]2[C@@H]3CCC4=CC(=O)C=C[C@]4(C)[C@@]3(F)[C@@H](O)C[C@]2(C)[C@@]1(O)C(=O)CO [betamethasone] | – | – | 12 out of 29 | 10 out of 12
